Measured values from ChEMBL document CHEMBL3044831, “Docking study, in vitro anticancer screening and radiosensitizing evaluation of some new fluorine-containing quinoline and pyrimidoquinoline derivatives bearing a sulfonamide moiety” (Med Chem Res, 2011).

Columns and labels:
MCF7 [1] = assay: Cytotoxicity against Homo sapiens (human) MCF-7 cells assessed as surviving fraction at 10 uM after 48 hr by SRB assay relative to control; format: functional
MCF7 [2] = assay: Cytotoxicity against Homo sapiens (human) MCF-7 cells after 48 hr by SRB assay relative to control; format: functional, cell-based; conditions: MCF7, 48 h
MCF7 [3] = assay: Cytotoxicity against Homo sapiens (human) MCF7 cells assessed as surviving fraction at 25 uM after 48 hr by SRB assay relative to control; format: functional
MCF7 [4] = assay: Cytotoxicity against Homo sapiens (human) MCF-7 cells assessed as surviving fraction at 50 uM after 48 hr by SRB assay relative to control; format: functional
MCF7 [5] = assay: Cytotoxicity against Homo sapiens (human) MCF-7 cells assessed as surviving fraction at 100 uM after 48 hr by SRB assay relative to control; format: functional
MCF7 [6] = assay: Radiosensitizing activity against Homo sapiens (human) gamma-irradiated MCF-7 cells assessed as surviving fraction at 50 uM after 48 hr by SRB assay (reference value: 0.927 +/- 0.02); format: functional
MCF7 [7] = assay: Radiosensitizing activity against Homo sapiens (human) gamma-irradiated MCF-7 cells assessed as surviving fraction at 25 uM after 48 hr by SRB assay (reference value: 0.927 +/- 0.02); format: functional
MCF7 [8] = assay: Radiosensitizing activity against Homo sapiens (human) gamma-irradiated MCF-7 cells assessed as surviving fraction at 10 uM after 48 hr by SRB assay (reference value: 0.927 +/- 0.02); format: functional
MCF7 [9] = assay: Radiosensitizing activity against Homo sapiens (human) gamma-irradiated MCF-7 cells assessed as surviving fraction at 100 uM after 48 hr by SRB assay (reference value: 0.927 +/- 0.02); format: functional
MCF7 [10] = assay: Potentiation of gamma-irradiation-induced cytotoxicity against Homo sapiens (human) MCF-7 cells after 48 hr by SRB assay; format: functional, cell-based; conditions: MCF7, light or radiation study

Row | Compound | fold change (FC) (MCF7 [1]) | IC50 (MCF7 [2]) | fold change (FC) (MCF7 [3]) | fold change (FC) (MCF7 [4]) | fold change (surviving fraction) (MCF7 [5]) | fold change (FC) (MCF7 [6]) | fold change (FC) (MCF7 [7]) | fold change (FC) (MCF7 [8]) | fold change (FC) (MCF7 [9]) | IC50 (MCF7 [10])
1 | CC1(C)CC(=O)C2=C(C1)N(c1ccc(S(N)(=O)=O)cc1)c1ncnc(N=C=S)c1C2c1ccc(F)cc1 (stereo not given) | 0.922 | 85.6 µM | 0.755 | 0.487 | 0.534 | – | – | – | – | –
2 | CC1(C)CC(=O)C2=C(C1)N(c1ccc(S(N)(=O)=O)cc1)C(N)=C(C#N)C2c1ccc(F)cc1 (stereo not given) | 0.855 | 71.8 µM | 0.562 | 0.427 | 0.482 | – | – | – | – | –
3 | CC1(C)CC(=O)C2=C(C1)N(c1ccc(S(N)(=O)=O)cc1)c1nc[nH]c(=O)c1C2c1ccc(F)cc1 (stereo not given) | 0.934 | 77.1 µM | 0.757 | 0.499 | 0.447 | – | – | – | – | –
4 | CC(=O)NC1=C(C#N)C(c2ccc(F)cc2)C2=C(CC(C)(C)CC2=O)N1c1ccc(S(N)(=O)=O)cc1 (stereo not given) | 0.882 | 85.9 µM | 0.763 | 0.598 | 0.483 | – | – | – | – | –
5 | CC(=O)N(C(C)=O)C1=C(C#N)C(c2ccc(F)cc2)C2=C(CC(C)(C)CC2=O)N1c1ccc(S(N)(=O)=O)cc1 (stereo not given) | 0.987 | 79.7 µM | 0.733 | 0.455 | 0.498 | – | – | – | – | –
6 | Cc1nc2c(c(=O)[nH]1)C(c1ccc(F)cc1)C1=C(CC(C)(C)CC1=O)N2c1ccc(S(N)(=O)=O)cc1 (stereo not given) | 0.768 | 69.8 µM | 0.654 | 0.494 | 0.425 | – | – | – | – | –
7 | CC1(C)CC(=O)C2=C(C1)N(c1ccc(S(N)(=O)=O)cc1)c1ncnc(N)c1C2c1ccc(F)cc1 (stereo not given) | 0.795 | 52.6 µM | 0.448 | 0.311 | 0.381 | 0.163 | 0.347 | 0.51 | 0.222 | 28.5 µM
8 | CCO/C=N/C1=C(C#N)C(c2ccc(F)cc2)C2=C(CC(C)(C)CC2=O)N1c1ccc(S(N)(=O)=O)cc1 (stereo not given) | 0.904 | 67.3 µM | 0.62 | 0.477 | 0.401 | 0.199 | 0.428 | 0.677 | 0.156 | 36 µM
9 | CC1(C)CC(=O)C2=C(C1)N(c1ccc(S(N)(=O)=O)cc1)C(NC(=O)CCl)=C(C#N)C2c1ccc(F)cc1 (stereo not given) | 0.885 | 70.8 µM | 0.7 | 0.45 | 0.43 | – | – | – | – | –
10 | CC1(C)CC(=O)C2=C(C1)N(c1ccc(S(N)(=O)=O)cc1)c1nc(CCl)[nH]c(=O)c1C2c1ccc(F)cc1 (stereo not given) | 0.984 | > 100 µM | 0.77 | 0.784 | 0.768 | – | – | – | – | –
11 | CC1(C)CC(=O)C2=C(C1)N(c1ccc(S(N)(=O)=O)cc1)c1nc(CC#N)[nH]c(=O)c1C2c1ccc(F)cc1 (stereo not given) | 0.976 | > 100 µM | 0.864 | 0.662 | 0.6 | – | – | – | – | –
12 | CCNC(=S)NC1=C(C#N)C(c2ccc(F)cc2)C2=C(CC(C)(C)CC2=O)N1c1ccc(S(N)(=O)=O)cc1 (stereo not given) | 0.924 | > 100 µM | 0.852 | 0.642 | 0.609 | – | – | – | – | –
13 | CC1(C)CC(=O)C2=C(C1)N(c1ccc(S(N)(=O)=O)cc1)C(N1C(=O)CCC1=O)=C(C#N)C2c1ccc(F)cc1 (stereo not given) | 0.933 | 94.1 µM | 0.885 | 0.678 | 0.488 | – | – | – | – | –
14 | CC1(C)CC(=O)C2=C(C1)N(c1ccc(S(N)(=O)=O)cc1)C(N)=C(C(N)=O)C2c1ccc(F)cc1 (stereo not given) | 0.906 | 75.2 µM | 0.711 | 0.409 | 0.493 | – | – | – | – | –
15 | CC1(C)CC(=O)C2=C(C1)N(c1ccc(S(N)(=O)=O)cc1)C(N)=C(C1=NCCN1)C2c1ccc(F)cc1 (stereo not given) | 0.873 | 87 µM | 0.679 | 0.423 | 0.581 | – | – | – | – | –
16 | CC(=O)CC(=O)NC1=C(C#N)C(c2ccc(F)cc2)C2=C(CC(C)(C)CC2=O)N1c1ccc(S(N)(=O)=O)cc1 (stereo not given) | 0.919 | > 100 µM | 0.905 | 0.76 | 0.663 | – | – | – | – | –
17 | CC1(C)CC(=O)C2=C(C1)N(c1ccc(S(N)(=O)=O)cc1)c1nc[nH]c(=S)c1C2c1ccc(F)cc1 (stereo not given) | 0.99 | > 100 µM | 0.901 | 0.686 | 0.608 | – | – | – | – | –
18 | CC1(C)CC(=O)C2=C(C1)N(c1ccc(S(N)(=O)=O)cc1)c1ncnc(Cl)c1C2c1ccc(F)cc1 (stereo not given) | 0.909 | 85.6 µM | 0.785 | 0.635 | 0.457 | – | – | – | – | –
19 | CCOC(=O)Cn1cnc2c(c1=O)C(c1ccc(F)cc1)C1=C(CC(C)(C)CC1=O)N2c1ccc(S(N)(=O)=O)cc1 (stereo not given) | 0.969 | > 100 µM | 0.898 | 0.686 | 0.572 | – | – | – | – | –
20 | CC1(C)CC(=O)C2=C(C1)N(c1ccc(S(N)(=O)=O)cc1)c1ncnc(NN)c1C2c1ccc(F)cc1 (stereo not given) | 0.959 | 81.2 µM | 0.652 | 0.478 | 0.518 | – | – | – | – | –
